This is an account of results in patent publication US7122624B2, “Parathyroid hormone receptor ligands” (The United States of America as represented by the …, priority 1999, dated 2006).

Each structure is given as a SMILES string. Where two headings read alike, the source gives them in different places. Non-standard residues stand in square brackets, D forms with d. Residues, ends and D or L forms follow the SMILES beside them. Tyr(3-I) = N[C@@H](Cc1ccc(O)c(I)c1)C(=O)O; Nle = CCCC[C@H](N)C(=O)O

Experiment [1] concerns the target T1, human PTH1 receptor (Homo sapiens, UniProt Q03431).
T1 sequence (Q03431 27-593): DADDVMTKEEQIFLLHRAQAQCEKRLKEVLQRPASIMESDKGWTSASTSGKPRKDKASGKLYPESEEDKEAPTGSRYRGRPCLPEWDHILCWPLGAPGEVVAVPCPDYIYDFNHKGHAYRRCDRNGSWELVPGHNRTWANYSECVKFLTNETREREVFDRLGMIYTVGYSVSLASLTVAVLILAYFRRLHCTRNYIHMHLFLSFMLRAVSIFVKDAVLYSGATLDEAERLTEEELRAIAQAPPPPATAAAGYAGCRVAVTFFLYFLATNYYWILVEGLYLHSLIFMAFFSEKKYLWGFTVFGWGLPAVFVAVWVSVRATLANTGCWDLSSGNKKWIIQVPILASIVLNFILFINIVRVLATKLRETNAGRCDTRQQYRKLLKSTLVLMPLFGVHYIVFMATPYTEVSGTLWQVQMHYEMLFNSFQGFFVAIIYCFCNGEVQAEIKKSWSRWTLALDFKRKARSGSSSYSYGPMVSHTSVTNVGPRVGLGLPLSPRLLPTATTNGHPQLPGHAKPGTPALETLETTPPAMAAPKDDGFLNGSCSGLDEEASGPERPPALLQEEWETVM
Put plainly: cAMP accumulation in HEK293 cells stably expressing the human PTH1 receptor (293PTH1). Also on record: expressed in transfected cells. The format is cell-based.

Experiment [2] has as its target T2, PTH2 receptor (Homo sapiens, UniProt P49190). Nature of the experiment: cAMP accumulation in HEK293 cells stably expressing the human PTH2 receptor (293PTH2). Type of experiment: cell-based. Also noted: expressed in transfected cells. As to conditions: 1 μM peptide. Background: cAMP levels reflect the balance of adenylyl cyclase and phosphodiesterase activity.
Experimental: COS-7 cells were grown as previously described in Clark et al. For cAMP accumulation assays COS-7 cells were transfected as previously described in Clark et al. except that transfections were performed in 10 cm tissue culture dishes using 10 μg of plasmid DNA. The cells were transferred following trypsinization to 96-well plates at a density of 50,000 cells/well the following day. Cells were used for cAMP accumulation assays three days after transfection.
Ligand-stimulated accumulation of cAMP was measured as described in Examples, using a radioimmunoassay to quantify cAMP (Clark et al., supra).
For cAMP accumulation data y is the amount of cAMP produced at a given peptide concentration, min is the cAMP level in the absence of ligand and max is the maximum level produced. […] Statistical comparison of multiple means was performed initially by single-factor analysis of variance followed by post-hoc analysis with the Newman-Keuls test. Statistical comparison of two means was performed using a two-tailed Student's t-test.
The target in experiment [3] is T2, PTH2 receptor. Put plainly: cAMP accumulation in COS-7 cells transiently expressing the human PTH2 receptor. Also noted: expressed in transfected cells; host or cells: COS-7 (transient). Type of experiment: cell-based. As to conditions: COS-7. The source says: Cell culture supplies were obtained from Life Technologies (Frederick, Md.) except for fetal bovine serum which was from Sigma (St. Louis, Mo.).
The constructs containing the cDNA sequences of the human PTH2 receptor and β-galactosidase have been previously described.
All peptides were purchased from either Bachem (Torrance, Calif.) or Peninsula Laboratories (Belmont, Calif.). The letters ‘b,’ ‘r’ and ‘h’ designate the peptide sequence as bovine, rat and human, respectively. […] [α-^32P]dCTP was purchased from ICN Biomedicals (Costa Mesa, Calif.). Bovine hypothalamic extract was prepared by acid extraction, gel-filtration and reverse-phase HPLC as previously described. […] Antagonist inhibitory potency was examined by measuring the concentration-dependence of rPTH(1–34)-stimulated cAMP accumulation in the presence and absence of antagonist.
Statistical comparison of two sample means was evaluated using the two-tailed Student's t-test. […] Antagonist inhibitory potency was quantified using the pA2, value, the negative logarithm of the concentration of antagonist that produces a two-fold decrease of agonist EC50. This was calculated using the following equation: pA2=((EC50/EC50′)−1)−log [antagonist]

In experiment [4] the target is T1, human PTH1 receptor. Also noted: expressed in transfected cells; host or cells: COS-7 (transient). To be noted: cited from earlier work.
The target in experiment [5] is T1, human PTH1 receptor. Nature of the experiment: [125I]TIP(7–39) saturation and kinetic binding to the human PTH1 receptor in HEK293 cell membranes. Also on record: expressed in transfected cells. How it is done: Binding of [^125I]TIP(7–39) to HEK293 membranes expressing the PTH1 receptor (FIGS. 21 and 22) was performed using rapid filtration to separate bound and free radioligand as described in Examples, using the assay buffer described above. Incubations were carried out in 96-well polypropylene plates. The incubation mixture was transferred to a polyvinylidene fluoride filtration plate (MAHVN45, Millipore, Bedford, Mass.) and the membranes collected by rapid filtration using a Millipore Multiscreen vacuum manifold. In saturation experiments, varying concentrations of [^125I]TIP(7–39) were incubated in triplicate with 10 μg membranes in the absence or presence of 1 μM unlabeled TIP(7–39) (for measurement of total binding and non-specific binding, respectively) for 1 hour at 21° C. In radioligand association experiments, radioligand and buffer were brought to 21° C. by incubation in a water bath for 15 minutes. Similarly pre-warmed membranes were then added to the wells at various time points and the assay wells harvested simultaneously. Non-specific binding in these experiments was defined using 300 nM unlabeled TIP(7–39), incubated with membranes and radioligand for 1 minute and 60 minutes. In the experiment in FIG. 23 a second, unlabeled ligand was included in the assay incubation in order to estimate the association and dissociation rate constants of the unlabeled ligand (see below). In dissociation experiments radioligand and membranes were equilibrated for 60 minutes prior to addition of unlabeled TIP(7–39) (300 nM final concentration) at various time points. All time points were harvested simultaneously. (As a result the shorter time points of the time course were equilibrated with radioligand for between 1 and 2 hours.) Non-specific binding was defined using 300 nM unlabeled TIP(7–39), which was included in the equilibration phase of the assay.
[^125I]TIP(7–39) saturation of the PTH1 receptor was analyzed as follows: First, non-specific binding (measured in the presence of 1 μM TIP(7–39)) was estimated as a fraction of the free radioligand concentration by linear regression. The values of KD and Bmax were obtained by fitting total binding data (measured in the absence of unlabeled ligand) to the following equation using Prism 2.01:
[^125I]TIP(7–39) association data (total binding) were fitted to a bi-exponential association equation to account for association to specific and non-specific sites (FIG. 23). This procedure was used because the value of non-specific binding measured after 60 minutes was slightly greater than the value measured after 1 minute. In the analysis the equilibrium level of non-specific binding was fixed at that measured at 60 minutes. The observed association rate constant for non-specific binding was high (>2 min^−1). The observed association rate of specific radioligand (L) binding (kon(obs)) was fitted by linear regression to the equation kon(obs)=koff+kon[L] where kon and koff are the association and dissociation rate constants respectively. [^125I]TIP(7–39) dissociation data were fitted to a mono-exponential dissociation equation.
The association and dissociation rate constants of unlabeled ligands were determined using the method devised by Motulsky and Mahan, Mol Pharmacol 25, 1–9, 1984, in which association of a radiolabeled antagonist ([^125I]TIP(7–39)) is measured in the presence of a fixed concentration of the unlabeled ligand. […]

Experiment [6] has as its target T3, C-terminal hemaglutinin-tagged human PTH1 receptor (Homo sapiens, UniProt Q03431).
T3 sequence (Q03431 27-593): T1 sequence (Q03431 27-593)
Put plainly: cAMP accumulation in COS-7 cells expressing a C-terminal hemaglutinin-tagged human PTH1 receptor. As to conditions: COS-7; five experiments; read-out: Emax, % of the maximal response to rPTH(1–34). The format is cell-based.

In general, EC50 refers to the concentration at which the effect is half-maximal. Broadly, the Emax is the maximal effect, on the per cent scale that the assay sets. As usually defined, the Kd is the concentration at which binding is half-saturated.

T2 sequence (P49190 25-550): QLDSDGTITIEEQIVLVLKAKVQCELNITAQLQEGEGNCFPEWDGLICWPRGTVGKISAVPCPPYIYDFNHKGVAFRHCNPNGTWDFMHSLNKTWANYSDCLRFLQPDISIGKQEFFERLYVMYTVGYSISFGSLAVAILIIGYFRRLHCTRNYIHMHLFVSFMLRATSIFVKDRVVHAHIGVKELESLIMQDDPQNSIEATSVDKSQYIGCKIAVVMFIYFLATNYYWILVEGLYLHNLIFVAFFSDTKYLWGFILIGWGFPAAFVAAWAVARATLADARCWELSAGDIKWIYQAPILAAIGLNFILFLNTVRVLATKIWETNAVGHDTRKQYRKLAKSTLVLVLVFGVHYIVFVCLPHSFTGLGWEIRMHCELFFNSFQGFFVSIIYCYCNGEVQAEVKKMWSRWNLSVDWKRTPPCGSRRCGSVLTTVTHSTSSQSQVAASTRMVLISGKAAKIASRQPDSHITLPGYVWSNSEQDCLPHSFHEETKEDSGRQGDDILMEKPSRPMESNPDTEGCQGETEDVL

As to `CC[C@H](C)[C@H](NC(=O)[C@H](CCC(=O)O)NC(=O)[C@H](CO)NC(=O)[C@@H](NC(=O)[C@H](C)N)C(C)C)C(=O)N[C@@H](CCC(N)=O)C(=O)N[C@@H](CC(C)C)C(=O)N[C@@H](CCSC)C(=O)N[C@@H](Cc1c[nH]cn1)C(=O)N[C@@H](CC(N)=O)C(=O)N[C@@H](CC(C)C)C(=O)NCC(=O)N[C@@H](CCCCN)C(=O)N[C@@H](Cc1c[nH]cn1)C(=O)N[C@@H](CC(C)C)C(=O)N[C@@H](C)C(=O)N[C@@H](CO)C(=O)N[C@H](C(=O)N[C@@H](CCC(=O)O)C(=O)N[C@@H](CCCNC(=N)N)C(=O)N[C@@H](CCSC)C(=O)N[C@@H](CCC(N)=O)C(=O)N[C@@H](Cc1c[nH]c2ccccc12)C(=O)N[C@@H](CC(C)C)C(=O)N[C@@H](CCCNC(=N)N)C(=O)N[C@@H](CCCCN)C(=O)N[C@@H](CCCCN)C(=O)N[C@@H](CC(C)C)C(=O)N[C@@H](CCC(N)=O)C(=O)N[C@@H](CC(=O)O)C(=O)N[C@H](C(=O)N[C@@H](Cc1c[nH]cn1)C(=O)N[C@@H](CC(N)=O)C(=O)N[C@@H](Cc1ccccc1)C(=O)O)C(C)C)C(C)C` [PTH], the “stimulation of cAMP accumulation” value at human PTH1 receptor [1] (1 μM peptide) and on PTH2 receptor [2] was “approximately 50 fold” throughout.

Regarding `CCCC[C@H](NC(=O)[C@H](CO)NC(=O)[C@H](CO)NC(=O)[C@H](CC(C)C)NC(=O)[C@H](Cc1c[nH]cn1)NC(=O)[C@H](CCCCN)NC(=O)CNC(=O)[C@H](CC(C)C)NC(=O)[C@H](CC(N)=O)NC(=O)[C@H](Cc1c[nH]cn1)NC(=O)[C@H](CCCC)NC(=O)[C@H](Cc1ccccc1)NC(=O)[C@H](CCC(N)=O)NC(=O)[C@@H](NC(=O)[C@H](CCC(=O)O)NC(=O)[C@@H](N)CO)[C@@H](C)CC)C(=O)N[C@@H](CCC(=O)O)C(=O)N[C@@H](CCCNC(=N)N)C(=O)N[C@H](C(=O)N[C@@H](CCC(=O)O)C(=O)N[C@@H](Cc1c[nH]c2ccccc12)C(=O)N[C@@H](CC(C)C)C(=O)N[C@@H](CCCNC(=N)N)C(=O)N[C@@H](CCCCN)C(=O)N[C@@H](CCCCN)C(=O)N[C@@H](CC(C)C)C(=O)N[C@@H](CCC(N)=O)C(=O)N[C@@H](CC(=O)O)C(=O)N[C@H](C(=O)N[C@@H](Cc1c[nH]cn1)C(=O)N[C@@H](CC(N)=O)C(=O)N[C@@H](Cc1ccc(O)cc1)C(N)=O)C(C)C)C(C)C` [[Nle^8,18, Tyr^34]bPTH(3-34), [Nle^8,18, Tyr^34]bPTH(3–34) amide] (H-SEIQF[Nle]HNLGKHLSS[Nle]ERVEWLRKKLQDVHNY-NH2; N-terminus assumed), it took 5.2 nM to reach a half-maximal effect on PTH2 receptor [3] (activation of adenylyl cyclase, figures in brackets) (EC50). The “agonist character” value at PTH2 receptor [3] (cAMP) is “partial agonists”. The Emax on PTH2 receptor [3] (read-out: Emax, % of response to 1 μM hPTH(1-34), intrinsic activity) is 37 ± 3%; in experiment [6], 26 ± 4%. Besides, the “activation of the PTH1 receptor” value at human PTH1 receptor [1] (293PTH1 cells, cAMP) is given as “not detected”. Further, the Bmax at human PTH1 receptor [4] (homologous displacement experiments) is recorded as 0.7 pmol/mg. Besides, the dissociation constant Kd on human PTH1 receptor [4] (reported previously) is 2 nM. At human PTH1 receptor [5] (estimated by Equation 4 from [125I]TIP(7–39) association, read-out: dissociation rate constant of unlabeled ligand (converted)), the koff was 0.0005 s⁻¹.

As for `CSCC[C@H](NC(=O)[C@H](Cc1ccc(O)c(I)c1)NC(=O)[C@H](CO)NC(=O)[C@H](CC(N)=O)NC(=O)[C@H](CC(C)C)NC(=O)[C@H](Cc1c[nH]c2ccccc12)NC(=O)[C@H](Cc1c[nH]cn1)NC(=O)[C@H](CCCNC(=N)N)NC(=O)[C@H](CCCNC(=N)N)NC(=O)[C@H](CCC(=O)O)NC(=O)[C@H](CC(C)C)NC(=O)[C@H](C)NC(=O)[C@H](C)NC(=O)[C@H](CC(C)C)NC(=O)[C@H](CC(C)C)NC(=O)[C@H](CCCNC(=N)N)NC(=O)[C@H](C)NC(=O)[C@H](CCCNC(=N)N)NC(=O)[C@H](CCC(=O)O)NC(=O)[C@H](CCCNC(=N)N)NC(=O)[C@H](Cc1ccccc1)NC(=O)[C@H](C)NC(=O)[C@H](C)NC(=O)[C@@H](N)CC(=O)O)C(=O)N[C@@H](Cc1c[nH]cn1)C(=O)N[C@@H](CCCCN)C(=O)N[C@@H](CC(C)C)C(=O)N[C@@H](CC(C)C)C(=O)N[C@H](C(=O)N[C@@H](CC(C)C)C(=O)N[C@@H](CC(=O)O)C(=O)N[C@@H](C)C(=O)N1CCC[C@H]1C(=O)O)C(C)C` [[^125I]TIP(7–39)] (H-DAAFRERARLLAALERRHWLNS[Tyr(3-I)]MHKLLVLDAP-OH; N-terminus and C-terminus assumed), the koff was 0.00085 s⁻¹ on human PTH1 receptor [5] (directly measured from dissociation time course, read-out: dissociation rate constant (k2) (converted)) and 0.00128 s⁻¹ at human PTH1 receptor [5] (estimate from the plot of kon(obs) vs. concentration of radioligand, read-out: dissociation rate constant (converted)). Besides, at human PTH1 receptor [5] (held constant in Equation 4 analysis, read-out: association rate constant (k1) (converted)), the kon was 1.48e+06 M⁻¹ s⁻¹. At human PTH1 receptor [5] (saturation experiments, n=3), the Bmax is 1.3 ± 0.1 pmol/mg.
